What was measured:
[1] = Solubility; type: physicochemical
[2] = system: mice; assay: Acute toxicity; type: in vivo; conditions: i.v., dose of 200 mg/kg
[3] = target: T1, aldose reductase (Bos taurus, UniProt P16116); assay: Aldose reductase inhibitory activity; type: biochemical, bovine (lenses); conditions: partially purified bovine lens enzyme
T1 construct: partially purified aldose reductase derived from bovine lenses; from tissue; host or cells: bovine lenses
Experimental: The preparation of an aldose reductase and the quantitative analysis of its enzymatic activity were effected in accordance with the method described by Hayman et al. in "Journal of Biological Chemistry" 240, 877 (1965). It was a partially purified aldose reductase derived from bovine lenses that was employed as an enzyme. Placed in a quartz cell in a spectrophotometer photometer was 2.4 ml of a 5×10^- 5M NADPH solution dissolved in 2/15M phosphate buffer (pH 6.0), 0.4 ml of 15 milli-units/ml solution of the enzyme and 0.1 ml of an aqueous aldostatin of one of various concentration. The contents were pre-incubated at 37° C. for 4 minutes. […] The reduction of the absorbance at 340 nm was traced at 37° C. for 4 minutes. At that time, the value (B) of tan θ was determined. Similarly, the reduction of the absorbance at 340 nm without addition of the inhibitor "aldostatin" was tracked. At that time, the value (A) of tan θ was determined. Percent inhibition (%) was calculated as follows. [formula]
The amount of inhibitor for 50% inhibition was expressed as IC50.

For `O=CN[C@@H](Cc1ccc(O)c(-c2cc(C[C@H](NC=O)C(=O)O)ccc2O)c1)C(=O)O` [aldostatin], the solubility ([1]; acetone) was “slightly soluble”, the solubility ([1]; benzene) was “insoluble” and the solubility ([1]; chloroform) was “slightly soluble”. For the same compound, the solubility ([1]; dimethylsulfoxide) was “soluble”, the solubility ([1]; ethyl acetate) was “slightly soluble” and the solubility ([1]; hexane) was “insoluble”. For the same compound, the solubility ([1]; methanol) was “soluble”, the solubility ([1]; petroleum ether) was “insoluble” and the solubility ([1]; water) was “soluble”. The “toxic effect (acute toxicity)” value [2] was “no toxic effect”, the IC50 ([3]; substrate glucose (5.0 × 10^-2 M)) was 2640 nM and the IC50 ([3]; substrate glyceraldehyde (5.0 × 10^-4 M), NADPH, pH 6.0, 37° C.) was 1200 nM.
